From PubChem BioAssay (NCI)
Values joined by “and” are separate entries in the source; they are usually repeats but may differ in a detail not shown here. Equal entries are not always repeated.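 Values below derive from 48-hour exposures of cells grown in 96-well plates, with endpoints linearly interpolated between the two concentrations bracketing the appropriate inhibition level. GI50 marks 50% less growth. TGI: total growth inhibition.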 Where a SMILES comes first, the peptide text is derived from it. [ ]: non-standard residue; d: D form.

Key:
Test in all cases: NCI-60 cell line screen, 48 h
DU-145 prostate = system: DU-145 prostate
OVCAR-5 ovarian = system: OVCAR-5 ovarian
SF-539 CNS = system: SF-539 CNS
U251 CNS = system: U251 CNS
COLO 205 colon = system: COLO 205 colon
HT29 colon = system: HT29 colon
NCI-H460 lung = system: NCI-H460 lung
M14 melanoma = system: M14 melanoma
CCRF-CEM leukemia = system: CCRF-CEM leukemia
OVCAR-4 ovarian = system: OVCAR-4 ovarian

Compound | TGI (DU-145 prostate) | TGI (OVCAR-5 ovarian) | TGI (SF-539 CNS) | TGI (U251 CNS) | TGI (COLO 205 colon) | TGI (HT29 colon) | TGI (NCI-H460 lung) | TGI (M14 melanoma) | TGI (CCRF-CEM leukemia) | TGI (OVCAR-4 ovarian) | GI50 (DU-145 prostate) | GI50 (OVCAR-5 ovarian) | GI50 (SF-539 CNS) | GI50 (U251 CNS) | GI50 (COLO 205 colon) | GI50 (HT29 colon) | GI50 (NCI-H460 lung) | GI50 (M14 melanoma) | GI50 (CCRF-CEM leukemia) | GI50 (OVCAR-4 ovarian)
C=C1C(=O)OC2(C)CCC1CC1OC1(C)CCC=C(C)CCC2O (stereo not drawn) | > 100 µM | > 100 µM | > 100 µM | > 100 µM | > 100 µM | > 100 µM | > 100 µM | > 100 µM | > 100 µM | > 100 µM |  |  |  |  |  |  |  |  |  | 
COC(=N)CCCl | > 100 µM | > 100 µM | > 100 µM | > 100 µM | > 100 µM | > 100 µM | > 100 µM | > 100 µM | > 100 µM | > 100 µM |  |  |  |  |  |  |  |  |  | 
N/C(CC(=O)NOC(=O)c1ccccc1)=N/OC(=O)c1ccccc1 | > 100 µM | > 100 µM | 54.8 µM | > 100 µM | > 100 µM | > 100 µM | > 100 µM | > 100 µM | > 100 µM | 75 µM |  |  |  |  |  |  |  |  |  | 
CC(C)OP(=O)(OC(C)C)/C(C#N)=C/c1c[nH]c2ccccc12 | > 100 µM | > 100 µM | > 100 µM | > 100 µM | > 100 µM | > 100 µM | > 100 µM | > 100 µM | > 100 µM | > 100 µM |  |  |  |  |  |  |  |  |  | 
COc1cc2c(=O)n(CC3CCCCC3)c3c4cc[nH]c4ncc3c2cc1OC | 19.6 µM | 24.2 µM | 3.08 µM | 15.7 µM | 11.7 µM | 15.2 µM | 9.41 µM | > 50 µM | > 50 µM | 10.3 µM | 4.96 µM | 1.74 µM | 0.681 µM | 4.85 µM | 1.67 µM | 2.85 µM | 2.25 µM | 4.3 µM | 2.54 µM | 1.1 µM
COc1ccc(F)cc1-c1ccnc2[nH]c(C3=CCN(C4CCC(CC(=O)O)CC4)CC3)cc12 (stereo not drawn) | > 100 µM | > 100 µM | 0.335 µM | > 100 µM | 0.561 µM | 3.93 µM | > 100 µM | 1.93 µM | > 100 µM | 6.44 µM | 0.346 µM | 0.268 µM | 0.0546 µM | 0.137 µM | 0.0747 µM | 0.234 µM | 0.236 µM | 0.275 µM | 0.13 µM | 0.282 µM
N=C1C=C(N)C(=O)c2ccccc21 | 0.345 µM | 0.373 µM | 0.347 µM | 0.339 µM | 0.664 µM | 1.82 µM | 4.01 µM | 0.422 µM | > 100 µM | 0.243 µM | 0.191 µM | 0.184 µM | 0.181 µM | 0.183 µM | 0.267 µM | 0.386 µM | 1.81 µM | 0.209 µM | 0.308 µM | 0.103 µM
O=C(N/N=C/c1ccc(N(CCCl)CCCl)cc1)c1ccc(C(=O)N/N=C/c2ccc(N(CCCl)CCCl)cc2)cc1 | > 100 µM | > 100 µM | 47.3 µM | 17.1 µM | > 100 µM | > 100 µM | > 100 µM | > 100 µM | > 100 µM | > 100 µM | 0.341 µM | 71.5 µM | 0.612 µM | 0.346 µM | 15.8 µM | 0.801 µM | 0.038 µM | 3.79 µM | 0.0349 µM | 47.9 µM
O=C1CC2OCC=C3CN4CCC5(C(=O)O)C(N1)C2C3CC45 (stereo not drawn) | > 100 µM | > 100 µM | > 100 µM | > 100 µM | > 100 µM | > 100 µM | > 100 µM | > 100 µM | > 100 µM | > 100 µM |  |  |  |  |  |  |  |  |  | 
CSCC[C@H](NC(=O)[C@@H](N)CC(N)=O)C(=O)N[C@@H](Cc1c[nH]c2ccccc12)C(=O)N[C@@H](CCC(N)=O)C(=O)N[C@@H](CCC(=O)O)C(=O)N[C@H](C(=O)NCC(=O)N[C@@H](CCCCN)C(=O)N[C@H](C)C(=O)O)C(C)C (H-NMWQEVGK[dA]-OH) | > 100 µM | > 100 µM | > 100 µM | > 100 µM | > 100 µM | > 100 µM | > 100 µM | > 100 µM | > 100 µM | > 100 µM |  |  |  |  |  |  |  |  |  | 
C[C@@H](C[C@H](CCO)c1ccccc1)c1ccc2ccccc2c1 | 2.84 µM | 3.04 µM | 3.11 µM | 2.94 µM | 3.41 µM | 2.8 µM | 3.42 µM | 2.84 µM | 1.51 µM | 2.88 µM | 1.47 µM | 1.57 µM | 1.68 µM | 1.57 µM | 1.75 µM | 1.43 µM | 1.79 µM | 1.46 µM | 0.364 µM | 1.51 µM
COC(=O)Nc1nc2ccc(C(=O)c3cccs3)cc2[nH]1 | 1.5 µM | > 100 µM |  |  | 2.09 µM |  |  | 2.79 µM and 0.432 µM | 19.8 µM and > 100 µM | 70.9 µM and > 100 µM |  | 0.545 µM | 0.0259 µM and 0.21 µM | 0.147 µM |  | 0.0552 µM | 0.239 µM | 0.0797 µM | 0.124 µM | 
O=C(/C=C/c1ccc(Cl)cc1Cl)c1ccc(Cl)cc1Cl | > 100 µM | 49.1 µM | > 54.9 µM | 34.1 µM | > 65.4 µM | > 60.1 µM | > 100 µM | 46.3 µM | 32.8 µM | 88.5 µM | 29.5 µM | 21.7 µM | 20.7 µM | 14.1 µM | 20.8 µM | 15.2 µM | 42.1 µM | 18.7 µM | 9.14 µM | 26.6 µM
